In brackets after ≈: the same amount, converted by molar mass.

This note sets out measurements from ChEMBL document CHEMBL1133906, “Leishmanicidal activity of some stilbenoids and related heterocyclic compounds” (Bioorg Med Chem Lett, 2001).

Type in all cases: functional, organism-based
One assay has as its system Leishmania braziliensis. In words: In vitro inhibitory activity against Leishmania braziliensis (M2903).
A further assay has as its system Leishmania amazonensis. In words: In vitro inhibitory activity against Leishmania amazonensis (PH8).
For another assay, the system named is Leishmania donovani. In words: In vitro inhibitory activity against Leishmania donovani (PP75).

For orientation: IC50 means the concentration that inhibits the measured activity by half. A high value points to weaker potency in that assay. As to `Oc1nnc(Cc2ccc(Cl)cc2)c2ccccc12`, the half-maximal inhibitory concentration (IC50) in the assay with Leishmania braziliensis, in the assay with Leishmania amazonensis and in the assay with Leishmania donovani was no less than 100 µg/mL throughout.

Regarding `COc1ccc(Cc2nn(C)c(=O)c3ccccc23)cc1`, the IC50 in the assay on Leishmania braziliensis, in the assay on Leishmania amazonensis and in the assay with Leishmania donovani was no less than 100 µg/mL in each case.

Consider `COc1cc(/C=C2\OC(=O)c3ccccc32)cc(OC)c1OC`, for which the concentration for half-maximal inhibition (IC50) with Leishmania braziliensis is no less than 100 µg/mL; in the assay with Leishmania amazonensis, 52 µg/mL (≈ 166 µM); in the assay with Leishmania donovani, no less than 100 µg/mL.

As for `O=C(C(=O)c1ccccc1C(=O)N1CCCCC1)c1ccccc1`, the IC50 in the assay with Leishmania braziliensis, in the assay with Leishmania amazonensis and in the assay on Leishmania donovani was 75 µg/mL (≈ 233 µM) each time.

As for `COc1ccc(CC2(O)c3ccccc3C3=NCCN32)cc1` (stereo unspecified), the 50% inhibitory concentration (IC50) with Leishmania braziliensis, with Leishmania amazonensis and in the assay on Leishmania donovani was no less than 100 µg/mL in each case.

Consider `O=C(Cc1ccc(Cl)cc1)c1ccccc1C(=O)N1CCCCC1`, for which the IC50 with Leishmania braziliensis, in the assay with Leishmania amazonensis and with Leishmania donovani was no less than 100 µg/mL throughout.

In the case of `COc1ccc(/C=C2\OC(=O)c3ccccc32)cc1`, the IC50 in the assay with Leishmania braziliensis, with Leishmania amazonensis and with Leishmania donovani was no less than 100 µg/mL throughout.

With `Cn1nc(Cc2ccc3c(c2)OCO3)c2ccccc2c1=O`, the IC50 with Leishmania braziliensis, in the assay on Leishmania amazonensis and in the assay with Leishmania donovani was no less than 100 µg/mL in each case.

As for `O=C1O/C(=C\c2ccccc2)c2ccccc21`, the IC50 in the assay on Leishmania braziliensis, with Leishmania amazonensis and with Leishmania donovani was 45 µg/mL (≈ 202 µM) throughout.

Turning to `COc1ccc(CCc2cc(O)cc(OC)c2C(=O)N2CCCCC2)cc1`, the values for the IC50 in the assay on Leishmania braziliensis, in the assay with Leishmania amazonensis and in the assay on Leishmania donovani were 10 µg/mL (≈ 27.1 µM), 7 µg/mL (≈ 18.9 µM) and 7 µg/mL (≈ 18.9 µM), respectively.

As for `COC(=O)c1c(CCc2ccc(OC)cc2)cc(O)cc1OC`, the IC50 in the assay with Leishmania braziliensis, in the assay on Leishmania amazonensis and with Leishmania donovani was no less than 100 µg/mL each time.

As to `COc1cc(CC(=O)c2ccccc2C(=O)N2CCCCC2)cc(OC)c1OC`, the IC50 in the assay on Leishmania braziliensis was 7 µg/mL (≈ 17.6 µM); in the assay with Leishmania amazonensis it was 10 µg/mL (≈ 25.2 µM); in the assay on Leishmania donovani, 20 µg/mL (≈ 50.3 µM).

In the case of `OC1(Cc2ccc(Cl)cc2)c2ccccc2C2=NCCCN21` (stereo unspecified), the IC50 in the assay with Leishmania braziliensis, in the assay on Leishmania amazonensis and with Leishmania donovani was no less than 100 µg/mL throughout.

Turning to `Oc1nnc(Cc2ccc3c(c2)OCO3)c2ccccc12`, the IC50 in the assay with Leishmania braziliensis, with Leishmania amazonensis and with Leishmania donovani was no less than 100 µg/mL throughout.

With `COc1ccc(C(=O)C(=O)c2ccccc2C(=O)N2CCCCC2)cc1`, the IC50 was 80 µg/mL (≈ 228 µM) with Leishmania braziliensis, no less than 100 µg/mL with Leishmania amazonensis and 80 µg/mL (≈ 228 µM) in the assay with Leishmania donovani.

For `COc1ccc(CC(=O)c2ccccc2C(=O)N2CCCCC2)cc1`, the IC50 in the assay with Leishmania braziliensis, with Leishmania amazonensis and in the assay with Leishmania donovani was no less than 100 µg/mL in each case.

`COc1ccc(CC2(O)c3ccccc3C3=NCCCN32)cc1` (stereo unspecified): the IC50 with Leishmania braziliensis, in the assay with Leishmania amazonensis and in the assay with Leishmania donovani was no less than 100 µg/mL throughout.

In the case of `COc1cc(Cc2nnc(O)c3ccccc23)cc(OC)c1OC`, the half-maximal inhibitory concentration (IC50) with Leishmania braziliensis, in the assay with Leishmania amazonensis and in the assay on Leishmania donovani was no less than 100 µg/mL each time.

On to `COc1cc(Cc2nn(C)c(=O)c3ccccc23)cc(OC)c1OC`, for which the IC50 in the assay on Leishmania braziliensis, in the assay on Leishmania amazonensis and in the assay with Leishmania donovani was no less than 100 µg/mL in each case.

Regarding `O=c1[nH]nc(Cc2ccccc2)c2ccccc12`, the IC50 with Leishmania braziliensis, with Leishmania amazonensis and in the assay on Leishmania donovani was no less than 100 µg/mL throughout.

For the compound `COc1ccc(C(=O)C(=O)c2ccccc2C(=O)N2CCCC2)cc1`, the half-maximal inhibitory concentration (IC50) in the assay with Leishmania braziliensis, in the assay on Leishmania amazonensis and in the assay on Leishmania donovani was no less than 100 µg/mL each time.

Turning to `COc1ccc(CC2(O)c3ccccc3C3=NCCN32)cc1OC` (stereo unspecified), the IC50 with Leishmania braziliensis, in the assay on Leishmania amazonensis and in the assay with Leishmania donovani was no less than 100 µg/mL each time.

`O=C(Cc1ccc2c(c1)OCO2)c1ccccc1C(=O)N1CCCCC1`: the concentration for half-maximal inhibition (IC50) in the assay with Leishmania braziliensis, with Leishmania amazonensis and with Leishmania donovani was no less than 100 µg/mL each time.

`COc1ccc(CC2(O)c3ccccc3C3=NCCCN32)cc1OC` (stereo unspecified): the IC50 in the assay with Leishmania braziliensis, with Leishmania amazonensis and in the assay on Leishmania donovani was no less than 100 µg/mL in each case.

Take `COc1ccc(/C=C2/c3ccccc3C(=O)N2NC(C)(C)C)cc1`: the 50% inhibitory concentration (IC50) with Leishmania braziliensis, in the assay on Leishmania amazonensis and in the assay on Leishmania donovani was no less than 100 µg/mL in each case.

With `Cn1nc(Cc2ccc(Cl)cc2)c2ccccc2c1=O`, the figures for the half-maximal inhibitory concentration (IC50) with Leishmania braziliensis, with Leishmania amazonensis and in the assay on Leishmania donovani were no less than 100 µg/mL, no less than 100 µg/mL and 64 µg/mL (≈ 225 µM), respectively.

Turning to `COc1ccc(Cc2nnc(O)c3ccccc23)cc1`, the IC50 in the assay with Leishmania braziliensis, in the assay with Leishmania amazonensis and with Leishmania donovani was no less than 100 µg/mL in each case.

For the compound `OC1(Cc2ccc3c(c2)OCO3)c2ccccc2C2=NCCCN21` (stereo unspecified), the IC50 with Leishmania braziliensis, with Leishmania amazonensis and in the assay with Leishmania donovani was no less than 100 µg/mL each time.

Consider `COc1ccc(CC(=O)c2ccccc2C(=O)N2CCCCC2)cc1OC`, for which the IC50 in the assay on Leishmania braziliensis, with Leishmania amazonensis and in the assay on Leishmania donovani was no less than 100 µg/mL each time.

As to `COc1cc(C(=O)C(=O)c2ccccc2C(=O)N2CCCCC2)cc(OC)c1OC`, the IC50 in the assay with Leishmania braziliensis came out at 52 µg/mL (≈ 126 µM); in the assay with Leishmania amazonensis it was 28 µg/mL (≈ 68.1 µM); in the assay with Leishmania donovani, 52 µg/mL (≈ 126 µM).

As for `OC1(Cc2ccccc2)c2ccccc2C2=NCCCN21` (stereo unspecified), the IC50 in the assay on Leishmania braziliensis, in the assay on Leishmania amazonensis and in the assay on Leishmania donovani was 45 µg/mL (≈ 162 µM) each time.

With `O=C(C(=O)c1ccccc1C(=O)N1CCCCC1)c1ccc(Cl)cc1`, the IC50 in the assay with Leishmania braziliensis turned out to be 52 µg/mL (≈ 146 µM); in the assay on Leishmania amazonensis it was 25 µg/mL (≈ 70.3 µM); with Leishmania donovani, 28 µg/mL (≈ 78.7 µM).

`COc1ccc(CC2(O)c3ccccc3C(=O)N2NC(C)(C)C)cc1` (stereo unspecified): the concentration for half-maximal inhibition (IC50) in the assay with Leishmania braziliensis, with Leishmania amazonensis and in the assay on Leishmania donovani was no less than 100 µg/mL in each case.

Regarding `COc1ccc(CCc2cc(O)cc(OC)c2)cc1`, the half-maximal inhibitory concentration (IC50) in the assay with Leishmania braziliensis, in the assay on Leishmania amazonensis and in the assay on Leishmania donovani was no less than 100 µg/mL each time.

On to `COc1ccc(C(=O)C(=O)c2ccccc2C(=O)N2CCCCC2)cc1OC`, for which the IC50 in the assay with Leishmania braziliensis, in the assay on Leishmania amazonensis and in the assay with Leishmania donovani was no less than 100 µg/mL in each case.

On to `OC1(Cc2ccc(Cl)cc2)c2ccccc2C2=NCCN21` (stereo unspecified), for which the IC50 with Leishmania braziliensis, in the assay with Leishmania amazonensis and in the assay with Leishmania donovani was no less than 100 µg/mL in each case.

With `O=C(C(=O)c1ccccc1C(=O)N1CCCCC1)c1ccc2c(c1)OCO2`, the IC50 in the assay with Leishmania braziliensis, with Leishmania amazonensis and in the assay with Leishmania donovani was no less than 100 µg/mL throughout.

Regarding `COc1ccc(Cc2nn(C)c(=O)c3ccccc23)cc1OC`, the half-inhibitory concentration (IC50) in the assay with Leishmania braziliensis, in the assay on Leishmania amazonensis and in the assay with Leishmania donovani was no less than 100 µg/mL in each case.

With `OC1(Cc2ccc3c(c2)OCO3)c2ccccc2C2=NCCN21` (stereo unspecified), the half-maximal inhibitory concentration (IC50) in the assay with Leishmania braziliensis, in the assay on Leishmania amazonensis and with Leishmania donovani was no less than 100 µg/mL in each case.

On to `COc1cc(CC2(O)c3ccccc3C3=NCCN32)cc(OC)c1OC` (stereo unspecified), for which the IC50 in the assay with Leishmania braziliensis, with Leishmania amazonensis and in the assay with Leishmania donovani was no less than 100 µg/mL each time.

`N=C(N)c1ccc(OCCCCCOc2ccc(C(=N)N)cc2)cc1` [PENTAMIDINE]: the IC50 with Leishmania braziliensis, in the assay on Leishmania amazonensis and with Leishmania donovani was 1.3 µg/mL (≈ 3.82 µM) in each case.

For `O=C1O/C(=C\c2ccc(Cl)cc2)c2ccccc21`, the half-maximal inhibitory concentration (IC50) in the assay with Leishmania braziliensis was no less than 100 µg/mL; in the assay with Leishmania amazonensis it was no less than 100 µg/mL; with Leishmania donovani it was 52 µg/mL (≈ 203 µM).

As to `OC1(Cc2ccccc2)c2ccccc2C2=NCCN21` (stereo unspecified), the half-inhibitory concentration (IC50) in the assay on Leishmania braziliensis, with Leishmania amazonensis and with Leishmania donovani was 60 µg/mL (≈ 227 µM) each time.

For `COc1cc(CC2(O)c3ccccc3C3=NCCCN32)cc(OC)c1OC` (stereo unspecified), the half-maximal inhibitory concentration (IC50) in the assay with Leishmania braziliensis, in the assay with Leishmania amazonensis and in the assay on Leishmania donovani was no less than 100 µg/mL each time.

`CCN(CC)C(=O)c1ccccc1C(=O)C(=O)c1ccc(OC)cc1`: the 50% inhibitory concentration (IC50) with Leishmania braziliensis, in the assay on Leishmania amazonensis and in the assay with Leishmania donovani was 75 µg/mL (≈ 221 µM) each time.

For the compound `O=C(Cc1ccccc1)c1ccccc1C(=O)N1CCCCC1`, the IC50 with Leishmania braziliensis, with Leishmania amazonensis and in the assay on Leishmania donovani was no less than 100 µg/mL each time.

Consider `COc1ccc(CCc2cc(OC(C)=O)cc(OC)c2C(=O)O)cc1`, for which the half-inhibitory concentration (IC50) in the assay with Leishmania braziliensis, in the assay with Leishmania amazonensis and with Leishmania donovani was 62 µg/mL (≈ 180 µM) throughout.

On to `Cn1nc(Cc2ccccc2)c2ccccc2c1=O`, for which the IC50 in the assay on Leishmania braziliensis, in the assay with Leishmania amazonensis and in the assay on Leishmania donovani was no less than 100 µg/mL each time.

`COc1ccc(CCc2cc(O)cc(OC)c2C(=O)O)cc1` [ISONOTHOLAENIC ACID]: the concentration for half-maximal inhibition (IC50) with Leishmania braziliensis, in the assay on Leishmania amazonensis and in the assay on Leishmania donovani was 32 µg/mL (≈ 106 µM) each time.

Regarding `COc1ccc(/C=C2\OC(=O)c3ccccc32)cc1OC`, the half-inhibitory concentration (IC50) in the assay with Leishmania braziliensis, in the assay on Leishmania amazonensis and in the assay on Leishmania donovani was no less than 100 µg/mL throughout.

Turning to `COc1ccc(Cc2nnc(O)c3ccccc23)cc1OC`, the IC50 in the assay on Leishmania braziliensis, with Leishmania amazonensis and in the assay with Leishmania donovani was no less than 100 µg/mL in each case.

For the compound `O=C1O/C(=C\c2ccc3c(c2)OCO3)c2ccccc21`, the concentration for half-maximal inhibition (IC50) with Leishmania braziliensis, in the assay with Leishmania amazonensis and with Leishmania donovani was no less than 100 µg/mL each time.
